US20250213707A1, “COMPOUND FOR INCREASING EFFICACY OF ONCOLYTIC VIRUSES” (ABLEVIA BIOTECH GMBH, priority 2022, published 2025)

Tests used:
[1] = test system: polyclonal antibody ab6982; test: Epitope mapping of polyclonal antibody ab6982 against cyclic peptides of Ad5 fiber and hexon (peptide array); assay type: binding, rabbits
Source text: Polyclonal antibody ab6982 (Abcam) was generated by immunizing rabbits with purified AdV. It reacts with all capsid proteins of Ad5 including hexon, fiber and penton. It was shown that the antibody neutralizes Ad5 infection in a bioassay at 1000 adenovirus 5 particles/ml, a 50% inactivation of the adenovirus can be achieved at a 1/25,000 dilution of the antibody. In order to identify epitopic regions that could contain peptides for ab6982 paratope binding, the antibody was mapped against the sequences of fiber (NCBI Reference Sequence: AP 000226.1) and hexon protein (GenBank: BAG48782.1). […] The binding signal of this antibody to the array yielded several peptides that were aligned and clustered against the sequence of the protein. The peptide clusters were named cluster1-7 (fiber protein) and clusters8-16 (hexon protein) according to their ranked order of cyclic peptide hits (i.e. cluster contains the strongest binders, cluster2 the second strongest etc.). Below are the aligments of the corresponding peptides that bind to polyclonal antibody ab6982.

[2] = test system: IgG from human donors (anti-AAV antibodies); test: Screen for anti-AAV antibodies in human sera, 2452 linear 15-amino-acid AAV peptides on microarrays (Table 1); assay type: binding; parameters: key to group I: X: the deduplicated aggregate of the respective top 10 peptide hits for each donor was compiled and designated as group I; key to group II: X: the deduplicated aggregate of the respective top 25 peptide hits for each donor was compiled and designated as group II; key to group III: X: the deduplicated aggregate of the respective top 50 peptide hits for each donor was compiled and designated as group III; settings: human donor IgG binding to linear 15-amino-acid AAV peptides on microarray, fluorescence; for group I: membership in deduplicated aggregate of top 10 peptide hits for each donor; for group II: membership in deduplicated aggregate of top 25 peptide hits for each donor; for group III: membership in deduplicated aggregate of top 50 peptide hits for each donor
How it was run: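 Protein G-purified IgG from human donor blood incubated with microarrays of 2452 linear 15-mer peptides from 16 AAVs; binding read by fluorescence. Background-subtracted signals ranked per donor, with top 10, 25, 50 and 250 hits pooled and deduplicated into groups I-IV.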

[3] = cyclic peptides of fiber protein (clusters 1-7)
[4] = cyclic peptides of hexon protein (clusters 8-16)

Substance | antibody binding signal ranking from the microarray experiment [1, 3] | antibody binding signal ranking from the microarray experiment [1, 4] | further results
173 (SMSFSWD) [compound 173] | 144 |  | 
174 (SWDWSGHNYI) [compound 174] | 149 |  | 
175 (AYSMSFS) [compound 175] | 167 |  | 
176 (SMSFSWDWSGHNY) [compound 176] | 176 |  | 
177 (FSWDWSG) [compound 177] | 186 |  | 
178 (SWDWSGH) [compound 178] | 193 |  | 
179 (FLDPEYWNFR) [compound 179] | 017 |  | 
180 (SFLDPEYWNF) [compound 180] | 018 |  | 
181 (PEYWNFR) [compound 181] | 031 |  | 
182 (LNNSFLDPEYWNF) [compound 182] | 033 |  | 
183 (NNSFLDPEYWNFR) [compound 183] | 034 |  | 
184 (FLDPEYW) [compound 184] | 050 |  | 
185 (DPEYWNF) [compound 185] | 053 |  | 
186 (NNSFLDPEYW) [compound 186] | 068 |  | 
187 (VLLNNSFLDPEYW) [compound 187] | 088 |  | 
188 (EYWNFRN) [compound 188] | 113 |  | 
189 (LNNSFLDPEY) [compound 189] | 114 |  | 
190 (LDPEYWNFRN) [compound 190] | 155 |  | 
191 (LNNSFLD) [compound 191] | 180 |  | 
192 (NSFLDPEYWN) [compound 192] | 187 |  | 
193 (SSYTFSY) [compound 193] | 042 |  | 
194 (FATSSYTFSY) [compound 194] | 043 |  | 
195 (YINEIFATSSYTF) [compound 195] | 055 |  | 
196 (SYTFSYI) [compound 196] | 064 |  | 
197 (ATSSYTF) [compound 197] | 080 |  | 
198 (EIFATSSYTF) [compound 198] | 089 |  | 

Substance | antibody binding signal ranking from the microarray experiment [1, 3] | antibody binding signal ranking from the microarray experiment [1, 4] | further results
199 (NEIFATSSYTFSY) [compound 199] | 092 |  | 
200 (ATSSYTFSYI) [compound 200] | 097 |  | 
201 (HNYINEIFATSSY) [compound 201] | 099 |  | 
202 (IFATSSY) [compound 202] | 104 |  | 
203 (INEIFATSSY) [compound 203] | 110 |  | 
204 (NYINEIFATSSYT) [compound 204] | 119 |  | 
205 (YINEIFA) [compound 205] | 168 |  | 
206 (YTFSYIA) [compound 206] | 181 |  | 
207 (EIFATSSYTFSYI) [compound 207] | 200 |  | 
208 (ALEINLEEEDDDN) [compound 208] |  | 01 | 
209 (ATALEINLEEEDD) [compound 209] |  | 02 | 
210 (EAATALEINLEEE) [compound 210] |  | 03 | 
211 (LEINLEE) [compound 211] |  | 04 | 
212 (TALEINLEEEDDD) [compound 212] |  | 05 | 
213 (EINLEEE) [compound 213] |  | 06 | 
214 (ALEINLEEED) [compound 214] |  | 07 | 
215 (LEINLEEEDD) [compound 215] |  | 08 | 
216 (TALEINLEEE) [compound 216] |  | 09 | 
217 (DEAATALEINLEE) [compound 217] |  | 11 | 
218 (LEINLEEEDDDNE) [compound 218] |  | 13 | 
219 (AATALEINLEEED) [compound 219] |  | 14 | 
220 (EINLEEEDDD) [compound 220] |  | 15 | 
221 (ATALEINLEE) [compound 221] |  | 19 | 
222 (INLEEEDDDN) [compound 222] |  | 23 | 
223 (NLEEEDDDNE) [compound 223] |  | 27 | 
224 (DEVDEQA) [compound 224] |  | 10 | 

Substance | antibody binding signal ranking from the microarray experiment [1, 3] | antibody binding signal ranking from the microarray experiment [1, 4] | further results
225 (EDDDNEDEVDEQA) [compound 225] |  | 12 | 
226 (DDNEDEVDEQAEQ) [compound 226] |  | 16 | 
227 (EVDEQAE) [compound 227] |  | 17 | 
228 (DNEDEVDEQA) [compound 228] |  | 18 | 
229 (VDEQAEQ) [compound 229] |  | 20 | 
230 (EDEVDEQAEQQKT) [compound 230] |  | 21 | 
231 (EDEVDEQAEQ) [compound 231] |  | 22 | 
232 (DEVDEQAEQQKTH) [compound 232] |  | 24 | 
233 (NEDEVDEQAEQQK) [compound 233] |  | 25 | 
234 (DEVDEQAEQQ) [compound 234] |  | 26 | 
235 (EINLEEEDDDNED) [compound 235] |  | 028 | 
PRDWQRLINNNWGF (REGION 1..14: note = peptide derived from viral capsid protein) [SEQ ID NO: 1960] |  |  | group I [2]: X; group II [2]: X; group III [2]: X
PVPADPPTTESQAK [SEQ ID NO: 1931] |  |  | group I [2]: X; group II [2]: X; group III [2]: X
PWGYFDFNRFHCHF (REGION 1..14: note = peptide derived from viral capsid protein) [SEQ ID NO: 1961] |  |  | group I [2]: X; group II [2]: X; group III [2]: X
QLPYVLGSAHQGCL (REGION 1..14: note = peptide derived from viral capsid protein) [SEQ ID NO: 1962] |  |  | group I [2]: X; group II [2]: X; group III [2]: X
QQRVSTTLSQNNNS [SEQ ID NO: 1963] |  |  | group I [2]: X; group II [2]: X; group III [2]: X
SEPRPIGTRYLTRN (REGION 1..14: note = peptide derived from viral capsid protein) [SEQ ID NO: 1964] |  |  | group I [2]: X; group II [2]: X; group III [2]: X
SESVPDPQPLGEPP (REGION 1..14: note = peptide derived from viral capsid protein) [SEQ ID NO: 1922] |  |  | group I [2]: X; group II [2]: X; group III [2]: X
SGGSTNDNTYFGYS [SEQ ID NO: 1965] |  |  | group I [2]: X; group II [2]: X; group III [2]: X
SQSLDRLMNPLIDQ (REGION 1..14: note = peptide derived from viral capsid protein) [SEQ ID NO: 1966] |  |  | group I [2]: X; group II [2]: X; group III [2]: X
TAPGKKRPVDQSPQ (REGION 1..14: note = peptide derived from viral capsid protein) [SEQ ID NO: 1923] |  |  | group I [2]: X; group II [2]: X; group III [2]: X
TESVPDPQPIGEPP (REGION 1..14: note = peptide derived from viral capsid protein) [SEQ ID NO: 1929] |  |  | group I [2]: X; group II [2]: X; group III [2]: X
TGDSESVPDPQPIG [SEQ ID NO: 1967] |  |  | group I [2]: X; group II [2]: X; group III [2]: X
YHLNGRDSLVNPGP (REGION 1..14: note = peptide derived from viral capsid protein) [SEQ ID NO: 1904] |  |  | group I [2]: X; group II [2]: X; group III [2]: X
YYKSTNVDFAVNTE [SEQ ID NO: 1916] |  |  | group I [2]: X; group II [2]: X; group III [2]: X
